Series [1] has as its target T1, human MC3R (Homo sapiens, UniProt P41968).
T1 construct: expressed in transfected cells
Kind of series: Intracellular cAMP levels in live cells, MC3R agonist activity. The series is classed as cell-based. To be noted: cAMP split-luciferase reporter cell line stably expressing human MC3R; direct agonist effect, measurement window 1. On the procedure:
The stable cell lines were grown and maintained in selection media consisting of Dulbecco's modified Eagle media (DMEM) with 4.5 g/l D-glucose, and 4 mM L-glutamine (Thermo Fisher Scientific, Waltham, MA), supplemented with 10% fetal bovine serum, 100 units/ml penicillin, 100 μg/ml streptomycin, 2.5 μg/ml amphotericin B, 200 μg/ml hygromycin B (for positive selection of the GScAMP22f luciferase reporter), and Geneticin™ (G418) 700 μg/ml (for MC3R or MC4R selection). Actual serum concentration during the assay is estimated to be about 1%. Cell line identity is routinely verified by qPCR and MC3R- and MC4R-specific oligonucleotides.
The assay for the determination of the CAMP response in live cells was described previously. […] Ccells were seeded at a density of 20,000 cells per well using 384-well poly-D lysine-coated, clear bottom, and black-wall assay plates (Corning Inc. Corning, NJ). Cells were allowed to attach to the plates for 18 to 24 h after which growth media was removed and 20 ul of 4% D-luciferin (Promega) in CO2 independent, serum-free medium (Thermo Fisher Scientific) was added to each well. […] Intracellular cAMP levels were measured using an FDSS 7000EX Functional Drug Screening System (Hamamatsu Photonics, Hamamatsu, Japan) in the Center for Chemical Genomics at the Life Sciences Institute. This instrument allowed the in-line addition of test-peptides and receptor agonists while simultaneously acquiring the luminescence signal from live cells. […] A submaximal forskolin (20 μM) concentration was also included to serve as a normalization reference to account for cell number variations and differences in assay transducer efficiency between cell lines.
With this set up it was possible to evaluate the direct agonist effect of the test-peptides on the MC3R and MC4R cell lines during measurement window 1, while the antagonist profile in the presence of EC90 α-MSH was determined on measurement window 2. […] EC50 or IC50 potency values were determined by non-linear regression by fitting the data to a sigmoid four-parameter variable slope model using the GraphPad Prism version 8.4 software package (San Diego CA).

For series [2], the target named is human MC4R (Homo sapiens, UniProt P32245). Kind of series: Intracellular cAMP levels in live cells, MC3R selectivity relative to MC4R. It is filed as cell-based. To be noted: cAMP assays in human MC3R and human MC4R stable cell lines. For orientation: cAMP levels reflect the balance of adenylyl cyclase and phosphodiesterase activity.
Series [3] can be described thus: in vitro. How it is done: Pooled mouse plasma was prepared and stored at −80° C. prior to use. 396 μL mouse plasma was incubated at 37° C. for 5 minutes in 1.5 mL microcentrifuge tubes. 4 μL of 100 μM test or control compound/peptide was added to each tube and incubated for 0.5, 15, 30, 60, 120, or 240 minutes. An aliquot of 40 μL of each reaction was stopped by the addition of 4 volume of cold acetonitrile containing 200 ng/mL of Setmelanotide as an internal standard (IS). The incubation solution was centrifuged at 3500 rpm for 10 minutes to precipitate protein. The supernatant was used for LC/MS/MS analysis. The natural log peak area ratio (compound peak […] area/internal standard peak area) was plotted against time and the gradient of the line determined.

Non-standard residues stand in square brackets, D forms with d. Residues, ends and D or L forms follow the SMILES beside them. Nle = CCCC[C@H](N)C(=O)O; Aib = CC(C)(N)C(=O)O

Sequence of human MC4R (P32245 whole entry): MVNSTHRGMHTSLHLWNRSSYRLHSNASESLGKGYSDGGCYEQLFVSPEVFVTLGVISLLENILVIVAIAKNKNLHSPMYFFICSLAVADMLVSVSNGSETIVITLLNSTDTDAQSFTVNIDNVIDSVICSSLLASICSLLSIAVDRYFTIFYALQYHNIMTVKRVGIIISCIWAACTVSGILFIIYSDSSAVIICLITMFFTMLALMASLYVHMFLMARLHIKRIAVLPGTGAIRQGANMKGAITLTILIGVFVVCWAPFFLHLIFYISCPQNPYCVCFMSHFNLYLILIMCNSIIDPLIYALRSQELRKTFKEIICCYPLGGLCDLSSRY
T1 sequence (P41968 whole entry): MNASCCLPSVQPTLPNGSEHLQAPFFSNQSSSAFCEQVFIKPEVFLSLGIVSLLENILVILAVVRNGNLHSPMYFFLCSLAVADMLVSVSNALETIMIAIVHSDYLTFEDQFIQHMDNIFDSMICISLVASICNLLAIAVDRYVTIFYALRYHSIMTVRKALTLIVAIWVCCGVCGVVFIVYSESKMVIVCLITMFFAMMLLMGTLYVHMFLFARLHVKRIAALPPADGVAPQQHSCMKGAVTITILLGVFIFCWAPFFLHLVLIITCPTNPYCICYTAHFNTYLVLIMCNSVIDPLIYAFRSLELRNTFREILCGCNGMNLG

Turning to `CCCC[C@H](NC(=O)[C@@H](NC(=O)[C@@H](N)Cc1ccc(O)cc1)C(C)C)C(=O)N[C@H](C)C(=O)N[C@@H](Cc1c[nH]cn1)C(=O)N[C@@H](Cc1ccccc1)C(=O)N[C@@H](CCCNC(=N)N)C(=O)N[C@H](Cc1c[nH]c2ccccc12)C(=O)N[C@@H](CC(=O)O)C(=O)N[C@H](CCCNC(=N)N)C(=O)N[C@@H](Cc1ccccc1)C(=O)NCC(=O)O` [CTX-1126, Tyr-Val-Nle-D-Ala-His-Phe-Arg-D-Trp-Asp-D-Arg-Phe-Gly] (H-YV[Nle][dA]HFR[dW]D[dR]FG-OH), in series [1], the EC50 (as a rule, the concentration needed to bring the measured effect to its halfway point) amounted to 3 nM. In series [2], the “MC3R selectivity (relative to MC4R)” value turned out to be 43. For the same compound, in series [3] (mouse, plasma), the half-life (as a rule, how long it takes for the measured level to halve) at 1 µM was found to be 1.61 min; the fraction remaining at 5 min, 1 µM is 11.7%; the share remaining at 0.25 h, 1 µM amounted to 0.16%; the amount remaining at 0.5 h, 1 µM stood at 0.03%. In series [3] (pooled mouse plasma, 37° C.), this compound yielded a Mouse Plasma Stability, time point 0 min of 100%.

With `CCCC[C@H](NC(=O)[C@@H](NC(=O)[C@@H](N)Cc1ccc(O)cc1)C(C)C)C(=O)N[C@H](C)C(=O)N[C@@H](Cc1c[nH]cn1)C(=O)N[C@@H](Cc1ccccc1)C(=O)N[C@@H](CCCNC(=N)N)C(=O)N[C@H](Cc1c[nH]c2ccccc12)C(=O)N[C@@H](CC(=O)O)C(=O)N[C@@H](CCCNC(=N)N)C(=O)N[C@H](Cc1ccccc1)C(=O)NCC(=O)O` [CTX-1127, Tyr-Val-Nle-D-Ala-His-Phe-Arg-D-Trp-Asp-Arg-D-Phe-Gly] (H-YV[Nle][dA]HFR[dW]DR[dF]G-OH), the response in series [1] was half-maximal at 2.5 nM (EC50). For the same compound, in series [2], the “MC3R selectivity (relative to MC4R)” value turned out to be 95. Besides, in series [3] (mouse, plasma), the half-life at 1 µM was found to be 1.28 min; the amount remaining at 5 min, 1 µM came to 6.71%; the fraction remaining at 0.25 h, 1 µM is 0.25%; the share remaining at 0.5 h, 1 µM came out at 0.27%. The share remaining at 1 h, 1 µM in series [3] (mouse, plasma) is 0.04%. The same compound came in with a Mouse Plasma Stability, time point 0 min in series [3] (pooled mouse plasma, 37° C.) of 100%.

As to `CCCC[C@H](NC(=O)[C@@H](NC(=O)[C@@H](N)Cc1ccc(O)cc1)C(C)C)C(=O)NC(C)(C)C(=O)N[C@@H](Cc1c[nH]cn1)C(=O)N[C@@H](Cc1ccccc1)C(=O)N[C@@H](CCCNC(=N)N)C(=O)N[C@H](Cc1c[nH]c2ccccc12)C(=O)N[C@@H](CC(=O)O)C(=O)N[C@@H](CCCNC(=N)N)C(=O)N[C@@H](Cc1ccccc1)C(=O)NCC(=O)O` [CTX-1134, Tyr-Val-Nle-Aib-His-Phe-Arg-D-Trp-Asp-Arg-Phe-Gly] (H-YV[Nle][Aib]HFR[dW]DRFG-OH), the midpoint of the response in series [1], the EC50, lay at 2.5 nM. Besides, the “MC3R selectivity (relative to MC4R)” value in series [2] came to 566. For the same compound, in series [3] (mouse, plasma), the half-life at 1 µM amounted to 2.77 min; the fraction remaining at 5 min, 1 µM amounted to 28.6%; the share remaining at 0.25 h, 1 µM was determined as 2.97%; the fraction remaining at 0.5 h, 1 µM was 0.14%. Besides, the share remaining at 1 h, 1 µM in series [3] (mouse, plasma) came out at 0.02%. Further, in series [3] (pooled mouse plasma, 37° C.), the Mouse Plasma Stability, time point 0 min came to 100%.

In series [1], `CCCC[C@H](NC(=O)[C@@H](NC(C)=O)C(C)C)C(=O)N[C@H](C)C(=O)N[C@@H](Cc1c[nH]cn1)C(=O)N[C@@H](Cc1ccccc1)C(=O)N[C@@H](CCCNC(=N)N)C(=O)N[C@H](Cc1c[nH]c2ccccc12)C(=O)N[C@@H](CC(=O)O)C(=O)N[C@@H](CCCNC(=N)N)C(=O)N[C@@H](Cc1ccccc1)C(=O)NCC(=O)O` [CTX-1121, Val-Nle-D-Ala-His-Phe-Arg-D-Trp-Asp-Arg-Phe-Gly] (Ac-V[Nle][dA]HFR[dW]DRFG-OH) showed an EC50 of 3.1 nM. Further, in series [2], the “MC3R selectivity (relative to MC4R)” value is given as 2,123. Moreover, in series [3] (mouse, plasma), the half-life at 1 µM was found to be 138 min; the amount remaining at 5 min, 1 µM was 118%; the share remaining at 0.5 h, 1 µM came out at 91.1%; the share remaining at 1 h, 1 µM was 81.7%. Besides, in series [3] (mouse, plasma), the fraction remaining at 2 h, 1 µM was 68.3% and the share remaining at 4 h, 1 µM turned out to be 33.1%. Moreover, the Mouse Plasma Stability, time point 0 min in series [3] (pooled mouse plasma, 37° C.) amounted to 100%. The “Mouse Plasma Stability, time point 15 min” value in series [3] (pooled mouse plasma, 37° C., 15 min, in % (unit assumed)) was determined as 120.25.
